Experimental data reported in US5952323A, “Carbapenem antibiotic” (Merck & Co., Inc., priority 1998, dated 1999).
Read-outs that look alike come from different tables or passages of the source.

What was measured:
[1] = system: dehydropeptidase (DHP); test: Susceptibility to attack by dehydropeptidase (DHP); assay type: in vitro ADME; conditions: compared with naturally occurring carbapenems
From the text: The compound of formula I is of the broad class known as carbapenems. Naturally occurring carbapenems are susceptible to attack by a renal enzyme known as dehydropeptidase (DHP). This attack or degradation may reduce the efficacy of the carbapenem antibacterial agent. […] However, use of a DHP inhibitor is optional and is contemplated as being included in the present invention. Inhibitors of DHP and heir use with carbapenem antibacterial agents are disclosed in European Patent Applications No. 79102616.4, filed Jul. 24, 1979 (Patent No. 007 614); and No. 82107174.3, filed Aug. 9, 1982 (Publication No. 072 014)!.
The compound of the present invention may, where DHP inhibition is desired or necessary, be combined or used with the appropriate DHP inhibitor as described in the aforesaid patents and published application. The cited European Patent Application defines the procedure for determining DHP susceptibility of the present carbapenems and disclose suitable inhibitors, combination compositions and methods of treatment.

[2] = pH of the solution upon dissolution; assay type: physicochemical; conditions: monosodium salt of compound I
From the text: The compositions of the present invention are generally formulated using a carbon dioxide source. Preferred sources of carbon dioxide are carbon dioxide (gas, liquid or solid), carbonates and bicarbonates, and more preferably sodium carbonate and sodium bicarbonate, which can be incorporated into the formulation, such that an appropriate pH, e.g., about 6.2-8.5, is obtained upon dissolution. The native pH of the monosodium salt of compound I is approximately 5.4.
One formulation that is of particular interest is comprised of about 3-6 parts by weight, and preferably about 4.5 parts by weight, of compound I, or the pharmaceutically acceptable salt, stabilized form, prodrug or hydrate thereof, and 1 part by weight of sodium bicarbonate. Preferably the carbapenem is in the form of the monosodium salt. The pH which results upon dissolution of this formulation is approximately 6.5. Formulating the drug in this manner can extend the stability of the product in solution.
Another formulation that is of particular interest is comprised of about 4-10 parts by weight, and preferably about 6.7 parts by weight, of the compound of formula I, or the pharmaceutically acceptable salt, stabilized form, prodrug or hydrate thereof, and 1 part by weight sodium carbonate. Preferably the carbapenem is in the form of the monosodium salt. […]

[3] = assay type: physicochemical; conditions: 25° C.
Description: The final pH of the solution is shown below. Solution stability of this intravenous formulation was determined at 25° C. with the following results.

CC(O)C1C(=O)N2C(C(=O)O)=C(SC3CNC(C(=O)Nc4cccc(C(=O)O)c4)C3)C(C)C12 (stereo not shown) [Compound I]
susceptibility to attack by dehydropeptidase (DHP) [1]: significantly less subject to such attack | native pH [2]: approximately 5.4 | final pH ([3]; 12 mg/mL (marked *)): 7.4 | k ([3]; 12 mg/mL (marked *)): 0.004994 h⁻¹ | t 90% ([3]; 12 mg/mL (marked *)): 21.0 h | initial pH ([3]; 12 mg/mL (marked *), intravenous formulation): 7.0 | final pH ([3]; 36 mg/mL): 7.3 | k ([3]; 36 mg/mL): 0.01044 h⁻¹ | t 90% ([3]; 36 mg/mL): 7.3 h | initial pH ([3]; 36 mg/mL, intravenous formulation with sodium bicarbonate 8.0 mg/mL, sodium chloride 4.0 mg/mL): 6.7
